This is an account of results in patent US9632088B2, “Methods and compositions for gamma-secretase assay” (MEMORIAL SLOAN-KETTERING CANCER CENTER, priority 2010, dated 2017).

Assay [1] addresses T1, γ-secretase (Homo sapiens, UniProt P49768).
T1 construct: endogenous in cells; host or cells: HEK293 cells transiently transfected with myc-tagged N1-ΔE (substrate only)
Nature of the assay: Cell-based Notch cleavage assay, western blot with SM320, HEK293 cells transfected with N1-ΔE. The settings on record: 1 μM inhibitor, 48 hours. On the procedure: HEK293 cells were seeded in a 24-well plate and transfected with either truncated Notch1-ΔE construct (N1-ΔE) (gift from Dr. Raphael Kopan, Washington University School of Medicine, St. Louis, Mo.; (see Supplemental FIG. 1A of van Tetering et al., 2009, J. Biol. Chem., 284:31018-31027, for a diagram of N1-ΔE)) including cmyc (24), or empty pcDNA3.1 (−) (Invitrogen), using Fugene 6 transfection reagents (Roche). N1-ΔE includes the replete intracellular sequence, the transmembrane domain, and a truncated extracellular portion lacking LNR and the EGF repeat sequences (see Supplemental FIG. 1A of van Tetering et al., 2009, J. Biol. Chem., 284:31018-31027). […] The proteins were transferred to PVDF membrane (Millipore) using a semi-dry transfer emit (Bio-Rad) and analyzed by western blot with anti-myc antibody (prepared at Memorial Sloan-Kettering Cancer Center) and SM320 antibody.
HEK 293 cells were transiently transfected with truncated Notch1-ΔE construct including cmyc (N1-ΔE), a substrate of γ-secretase that is independent of ligand activation, as described in Experimental Methods. […] Cell lysates were analyzed by performing SDS-PAGE and immunoblotting the result with anti-myc and SM320 antibody (FIG. 6A). […] N1-ΔE was detected only in cells transfected with this construct (FIG. 6A, upper panel, lanes 1 and 2) but not in the mock transfected cells (FIG. 6A, upper panel, lane 3).

The target of assay [2] is T1, γ-secretase. Description: 1536-well format ALPHA-based γ-secretase assay, control validation. It is filed as biochemical. The following applies: low control: 250 nM Compound E, 1% DMSO, full 1536-well plate. On the procedure: Based on the 384-well assay format described above, to the assay was miniaturized to a 1536-well format for automated high-throughput drug screening. Concentrations of SM320, protein A conjugated acceptor beads and streptavidin conjugated donor beads were titrated to minimize reagent usage. […] The assay was validated by comparing the high and low control signals from full 1536-well plates. The high controls contained 1% final DMSO concentration (v/v), while the low controls contains 250 nM of Compound E also at 1% final DMSO concentration (v/v).

Assay [3] has as its target T2, E280A PS1 NTF (γ-secretase active site) (Homo sapiens, UniProt P49768, E280A).
T2 construct: total membrane
Nature of the assay: Photolabeling of PS1 NTF, N2a E280A PS1 membrane. The settings on record: probes 10 nM, 0.25% CHAPSO, normalized to JC8, excess L458 as competitor. It is filed as binding, murine. As for the experimental part:
Total cell membrane was pre-incubated in the presence of DMSO or 1 μM L458 in PIPES buffer containing 0.25% CHAPSO at 37° C. for 30 minutes. Then, photolabeling probes (JC8, L646 or GY4) (Li et al., 2000, Nature, 405:689-694, Chun et al., 2004, J Org. Chem., 69:7344-7347, Yang et al., 2009, Bioorg Med Chem. Lett., 19:922-925) at 10 nM were added and incubated for an additional 1 hour at 37° C. The reaction mixtures were irradiated at 350 nm for 45 minutes and solubilize with RIPA buffer. Biotinylated proteins in the soluble fraction were captured by Streptavidin resin (Pierce) overnight at 4° C. Bound proteins were eluted by boiling with SDS sample buffer and analyzed by western blotting with anti-PS1 NTF antibodies.
L646, GY4 and JC8, which photolabel the S2, S1, and S1′ subsites within the active site of PS1, respectively, were used for this study (FIG. 10b). Membranes isolated from N2a cells stably expressing wild-type (WT), M146L, or E280A PS1 were photolabeled with JC8, GY4 or L646 in the presence of 0.25% CHAPSO. […] After […] irradiation, biotinylated proteins were isolated with streptavidin beads and analyzed by western blotting with anti-PS1 NTF antibodies. […] To eliminate the effect of various amounts of γ-secretase existing in different cell lines, we normalized each probe with JC8 labeling in the same cell lines.

Consider `CC(NC(=O)Cc1cc(F)cc(F)c1)C(=O)NC1N=C(c2ccccc2)c2ccccc2N(C)C1=O` (stereo not drawn) [Compound E], for which the “detection of cleaved NICD band by SM320 (western blot)” value in assay [1] is reported as “not in the Compound E-treated cells”. Further, the “Average (ALPHA signal)” value in assay [2] is listed as 319. As for `CC(C)C[C@H](NC(=O)[C@H](Cc1ccccc1)C[C@@H](O)[C@H](Cc1ccccc1)NC(=O)OC(C)(C)C)C(=O)N[C@@H](Cc1ccccc1)C(N)=O` [L458], the “Photolabeling of PS1 NTF (western blot)” value in assay [3] is recorded as “completely prevented labeling”.
